Measurements from ChEMBL document CHEMBL1275603, “Incidence and antimicrobial susceptibility of Escherichia coli and Klebsiella pneumoniae with extended-spectrum beta-lactamases in community- and hospital-associated intra-abdominal infections in Europe: results of the 2008 Study for Monitoring Antimicrobial Resistance Trends (SMART)” (2010).

What was measured:
Format in all cases: functional
[1] = test system: Klebsiella pneumoniae; assay: Antimicrobial activity against community-acquired Klebsiella pneumoniae obtained from patient with intra-abdominal infection assessed as susceptible isolates by EUCAST method
[2] = test system: Klebsiella pneumoniae; assay: Antimicrobial activity against hospital-acquired Klebsiella pneumoniae obtained from patient with intra-abdominal infection assessed as susceptible isolates by EUCAST method
[3] = test system: Klebsiella pneumoniae; assay: Antimicrobial activity against community-acquired Klebsiella pneumoniae expressing extended spectrum beta-lactamase obtained from patient with intra-abdominal infection assessed as susceptible isolates by EUCAST method
[4] = test system: Klebsiella pneumoniae; assay: Antimicrobial activity against hospital-acquired Klebsiella pneumoniae expressing extended spectrum beta-lactamase obtained from patient with intra-abdominal infection assessed as susceptible isolates by EUCAST method
[5] = test system: Escherichia coli; assay: Antimicrobial activity against community-acquired Escherichia coli obtained from patient with intra-abdominal infection assessed as susceptible isolates by EUCAST method
[6] = test system: Escherichia coli; assay: Antimicrobial activity against hospital-acquired Escherichia coli obtained from patient with intra-abdominal infection assessed as susceptible isolates by EUCAST method
[7] = test system: Escherichia coli; assay: Antimicrobial activity against community-acquired Escherichia coli expressing extended spectrum beta-lactamase obtained from patient with intra-abdominal infection assessed as susceptible isolates by EUCAST method
[8] = test system: Escherichia coli; assay: Antimicrobial activity against hospital-acquired Escherichia coli expressing extended spectrum beta-lactamase obtained from patient with intra-abdominal infection assessed as susceptible isolates by EUCAST method
[9] = test system: Klebsiella pneumoniae; assay: Antimicrobial activity against community-acquired Klebsiella pneumoniae obtained from patient with intra-abdominal infection assessed as susceptible isolates by EUCAST method in presence of beta-lactamase inhibitor Sulbactam
[10] = test system: Klebsiella pneumoniae; assay: Antimicrobial activity against hospital-acquired Klebsiella pneumoniae obtained from patient with intra-abdominal infection assessed as susceptible isolates by EUCAST method in presence of beta-lactamase inhibitor Sulbactam
[11] = test system: Klebsiella pneumoniae; assay: Antimicrobial activity against community-acquired Klebsiella pneumoniae expressing extended spectrum beta-lactamase obtained from patient with intra-abdominal infection assessed as susceptible isolates by EUCAST method in presence of beta-lactamase inhibitor Sulbactam
[12] = test system: Klebsiella pneumoniae; assay: Antimicrobial activity against hospital-acquired Klebsiella pneumoniae expressing extended spectrum beta-lactamase obtained from patient with intra-abdominal infection assessed as susceptible isolates by EUCAST method in presence of beta-lactamase inhibitor Sulbactam
[13] = test system: Escherichia coli; assay: Antimicrobial activity against community-acquired Escherichia coli obtained from patient with intra-abdominal infection assessed as susceptible isolates by EUCAST method in presence of beta-lactamase inhibitor Sulbactam
[14] = test system: Escherichia coli; assay: Antimicrobial activity against hospital-acquired Escherichia coli obtained from patient with intra-abdominal infection assessed as susceptible isolates by EUCAST method in presence of beta-lactamase inhibitor Sulbactam
[15] = test system: Escherichia coli; assay: Antimicrobial activity against community-acquired Escherichia coli expressing extended spectrum beta-lactamase obtained from patient with intra-abdominal infection assessed as susceptible isolates by EUCAST method in presence of beta-lactamase inhibitor Sulbactam
[16] = test system: Escherichia coli; assay: Antimicrobial activity against hospital-acquired Escherichia coli expressing extended spectrum beta-lactamase obtained from patient with intra-abdominal infection assessed as susceptible isolates by EUCAST method in presence of beta-lactamase inhibitor Sulbactam

NCC[C@H](O)C(=O)N[C@@H]1C[C@H](N)[C@@H](O[C@H]2O[C@H](CN)[C@@H](O)[C@H](O)[C@H]2O)[C@H](O)[C@H]1O[C@H]1O[C@H](CO)[C@@H](O)[C@H](N)[C@H]1O [AMIKACIN]
Activity [1]: 98.6%
Activity [2]: 92.7%
Activity [3]: 75%
Activity [4]: 66%
Activity [5]: 98.5%
Activity [6]: 97%
Activity [7]: 59.5%
Activity [8]: 53.7%

CC1(C)S[C@@H]2[C@H](NC(=O)[C@H](N)c3ccccc3)C(=O)N2[C@H]1C(=O)O [AMPICILLIN]
Activity [9]: 79.2%
Activity [10]: 62.9%
Activity [11]: 0%
Activity [12]: 6.4%
Activity [13]: 53%
Activity [14]: 44.5%
Activity [15]: 5.4%
Activity [16]: 9.1%

CO/N=C(\C(=O)N[C@@H]1C(=O)N2C(C(=O)[O-])=C(C[N+]3(C)CCCC3)CS[C@H]12)c1csc(N)n1 [CEFEPIME]
Activity [1]: 98.6%
Activity [2]: 91.6%
Activity [3]: 0%
Activity [4]: 10.6%
Activity [5]: 98.5%
Activity [7]: 8.1%
Activity [8]: 9.9%

CO/N=C(\C(=O)N[C@@H]1C(=O)N2C(C(=O)O)=C(COC(C)=O)CS[C@H]12)c1csc(N)n1 [CEFOTAXIME]
Activity [1]: 100%
Activity [2]: 92.1%
Activity [3]: 0%
Activity [4]: 6.4%
Activity [5]: 98.7%
Activity [6]: 95.8%
Activity [7]: 0%
Activity [8]: 3.3%

CC(C)(O/N=C(\C(=O)N[C@@H]1C(=O)N2C(C(=O)[O-])=C(C[n+]3ccccc3)CS[C@H]12)c1csc(N)n1)C(=O)O [CEFTAZIDIME]
Activity [1]: 98.6%
Activity [2]: 91%
Activity [3]: 0%
Activity [4]: 0%
Activity [5]: 97.2%
Activity [6]: 94.3%
Activity [7]: 8.1%
Activity [8]: 5.8%

CO/N=C(\C(=O)N[C@@H]1C(=O)N2C(C(=O)O)=C(CSc3nc(=O)c(O)nn3C)CS[C@H]12)c1csc(N)n1 [CEFTRIAXONE]
Activity [1]: 98.6%
Activity [2]: 90.5%
Activity [3]: 0%
Activity [4]: 4.3%
Activity [5]: 98.3%
Activity [6]: 95.8%
Activity [7]: 2.7%
Activity [8]: 3.3%

O=C(O)c1cn(C2CC2)c2cc(N3CCNCC3)c(F)cc2c1=O [CIPROFLOXACIN]
Activity [1]: 94.4%
Activity [2]: 79.2%
Activity [3]: 50%
Activity [4]: 29.8%
Activity [6]: 78.3%
Activity [7]: 29.7%
Activity [8]: 22.3%

C[C@@H](O)[C@H]1C(=O)N2C(C(=O)O)=C(S[C@@H]3CN[C@H](C(=O)Nc4cccc(C(=O)O)c4)C3)[C@H](C)[C@H]12 [ERTAPENEM]
Activity [1]: 100%
Activity [2]: 93.3%
Activity [3]: 100%
Activity [4]: 83%
Activity [5]: 99.3%
Activity [6]: 98.9%
Activity [7]: 100%
Activity [8]: 99.2%

C[C@@H](O)[C@H]1C(=O)N2C(C(=O)O)=C(SCCNC=N)C[C@H]12 [IMIPENEM ANHYDROUS]
Activity [1]: 100%
Activity [2]: 94.9%
Activity [3]: 100%
Activity [4]: 89.4%
Activity [5]: 99.8%
Activity [6]: 99.6%
Activity [7]: 100%
Activity [8]: 100%

C[C@H]1COc2c(N3CCN(C)CC3)c(F)cc3c(=O)c(C(=O)O)cn1c23.C[C@H]1COc2c(N3CCN(C)CC3)c(F)cc3c(=O)c(C(=O)O)cn1c23.O [LEVOFLOXACIN]
Activity [1]: 97.2%
Activity [2]: 83.2%
Activity [3]: 50%
Activity [4]: 40.4%
Activity [5]: 87%
Activity [6]: 79.8%
Activity [7]: 32.4%
Activity [8]: 24.8%
